Values quoted from earlier work in patent publication US20120035233A1 (priority 2009, published 2012).
Where two headings read alike, the source gives them in different places.

- solubility (chloroform): slightly soluble
- solubility (ethanol (95%)): slightly soluble
- solubility (ether): very slightly soluble
- solubility (methanol): freely soluble
- solubility (water): very slightly soluble
SMILES: Clc1ccc(COC(Cn2ccnc2)c2ccc(Cl)cc2Cl)c(Cl)c1 (centres unmarked) [Miconazole Nitrate, 1-[2-(2,4-Dichlorophenyl)-2-[(2,4-dichlorophenyl)methoxy]ethyl]-1H-imidazole]
